Measurements reported in ChEMBL document CHEMBL1131112, “Matrix metalloproteinase inhibitors: a structure-activity study” (J Med Chem, 1998).

Columns and labels:
[1] = molecular target: Matrix metalloproteinase-9 (Homo sapiens, UniProt P14780)
Description: The compound was tested for its binding affinity towards 92 kDa gelatinase (Matrix metalloprotease-9)

[2] = molecular target: Neutrophil collagenase (Homo sapiens, UniProt P22894)
Description: The compound was tested for its binding affinity towards neutrophil collagenase (Matrix metalloprotease-8)

[3] = molecular target: 72 kDa type IV collagenase (Homo sapiens, UniProt P08253)
Chain of 72 kDa type IV collagenase (P08253 whole entry): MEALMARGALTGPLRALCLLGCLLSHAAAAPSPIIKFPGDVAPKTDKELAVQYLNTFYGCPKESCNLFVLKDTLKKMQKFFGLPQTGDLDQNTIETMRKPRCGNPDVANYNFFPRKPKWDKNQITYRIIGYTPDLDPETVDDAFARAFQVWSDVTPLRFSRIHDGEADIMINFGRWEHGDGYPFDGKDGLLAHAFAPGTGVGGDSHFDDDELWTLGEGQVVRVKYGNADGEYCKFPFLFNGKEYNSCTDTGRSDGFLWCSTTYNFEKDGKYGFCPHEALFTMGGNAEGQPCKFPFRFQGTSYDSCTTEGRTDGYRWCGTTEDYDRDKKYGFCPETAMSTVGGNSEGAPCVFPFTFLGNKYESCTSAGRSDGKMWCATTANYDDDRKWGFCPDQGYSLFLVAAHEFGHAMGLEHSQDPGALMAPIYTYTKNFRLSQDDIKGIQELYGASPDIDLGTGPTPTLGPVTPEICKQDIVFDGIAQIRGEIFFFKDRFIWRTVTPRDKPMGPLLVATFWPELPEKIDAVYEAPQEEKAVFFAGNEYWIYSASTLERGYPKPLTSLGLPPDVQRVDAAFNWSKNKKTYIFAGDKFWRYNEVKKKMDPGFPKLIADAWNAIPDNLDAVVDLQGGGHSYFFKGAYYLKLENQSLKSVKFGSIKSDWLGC
Description: Binding affinity towards 72 kDa gelatinase (Matrix metalloprotease-2)

Chain of Neutrophil collagenase (P22894 whole entry): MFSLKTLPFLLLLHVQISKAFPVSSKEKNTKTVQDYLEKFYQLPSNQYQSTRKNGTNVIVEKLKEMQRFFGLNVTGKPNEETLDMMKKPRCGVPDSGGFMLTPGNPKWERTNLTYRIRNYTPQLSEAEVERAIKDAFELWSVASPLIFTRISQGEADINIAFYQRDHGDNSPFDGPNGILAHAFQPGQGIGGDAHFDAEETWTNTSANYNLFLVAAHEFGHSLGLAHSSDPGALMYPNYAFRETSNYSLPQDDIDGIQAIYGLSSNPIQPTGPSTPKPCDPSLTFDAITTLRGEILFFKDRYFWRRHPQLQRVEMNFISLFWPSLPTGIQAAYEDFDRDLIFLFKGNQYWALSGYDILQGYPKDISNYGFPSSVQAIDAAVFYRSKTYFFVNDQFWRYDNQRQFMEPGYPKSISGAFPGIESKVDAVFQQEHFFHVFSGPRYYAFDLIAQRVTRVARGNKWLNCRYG
Chain of Matrix metalloproteinase-9 (P14780 whole entry): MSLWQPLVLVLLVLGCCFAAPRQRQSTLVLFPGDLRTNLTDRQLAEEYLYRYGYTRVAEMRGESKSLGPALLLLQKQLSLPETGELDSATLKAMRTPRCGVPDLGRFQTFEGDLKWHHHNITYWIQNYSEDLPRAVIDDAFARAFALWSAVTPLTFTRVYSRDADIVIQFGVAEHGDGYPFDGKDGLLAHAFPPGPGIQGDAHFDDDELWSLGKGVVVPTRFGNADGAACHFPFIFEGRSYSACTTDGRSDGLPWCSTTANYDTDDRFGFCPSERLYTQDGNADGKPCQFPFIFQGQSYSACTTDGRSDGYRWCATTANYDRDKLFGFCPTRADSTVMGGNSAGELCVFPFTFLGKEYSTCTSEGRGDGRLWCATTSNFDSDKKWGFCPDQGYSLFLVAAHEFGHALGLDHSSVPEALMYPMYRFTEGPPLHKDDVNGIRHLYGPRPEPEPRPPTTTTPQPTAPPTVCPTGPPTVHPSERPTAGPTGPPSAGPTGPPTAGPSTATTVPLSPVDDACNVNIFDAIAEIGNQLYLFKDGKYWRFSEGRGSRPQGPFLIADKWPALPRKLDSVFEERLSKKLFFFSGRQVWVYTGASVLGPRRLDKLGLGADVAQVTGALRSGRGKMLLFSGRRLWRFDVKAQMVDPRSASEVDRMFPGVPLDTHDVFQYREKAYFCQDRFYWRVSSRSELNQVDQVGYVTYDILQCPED

Compound	Ki [1]	Ki [2]	Ki [3]
CC(C)C[C@H](CC(=O)NO)C(=O)N[C@H](Cc1ccncc1)C(=O)NCCc1ccc(O)cc1	1.7 nM	0.33 nM	1.9 nM
CC(C)C[C@H](CC(=O)NO)C(=O)N[C@@H](Cc1c[nH]c2ccccc12)C(=O)NCc1ccccc1	5 nM	1.2 nM	2 nM
CC(C)C[C@H](CC(=O)NO)C(=O)N[C@H](Cc1ccc2ccccc2c1)C(=O)N[C@@H](C)c1ccccc1	6.9 nM	14 nM	13 nM
CNC(=O)[C@@H](Cc1cccc2cccnc12)NC(=O)[C@@H](CC(=O)NO)CC(C)C	1.5 nM	0.54 nM	1.3 nM
CNC(=O)[C@H](Cc1c[nH]c2ccccc12)NC(=O)[C@@H](CC(=O)O)CC(C)C	100 nM	17 nM	170 nM
CNC(=O)[C@@H](Cc1ccccc1)NC(=O)[C@@H](CC(=O)NO)CC(C)C	0.96 nM		
CNC(=O)[C@@H](Cc1ccc(-c2ccccc2)cc1)NC(=O)[C@@H](CC(=O)NO)CC(C)C	4.1 nM	2.4 nM	4 nM
CCCCCCCC[C@H](CC(=O)NO)C(=O)N[C@@H](Cc1c[nH]c2ccccc12)C(=O)NC	0.63 nM	1.6 nM	0.66 nM
CC(C)C[C@H](CC(=O)NO)C(=O)N[C@@H](Cc1c[nH]c2ccccc12)C(=O)NC1CC1	1.2 nM	0.34 nM	0.88 nM
CC(C)C[C@H](CC(=O)NO)C(=O)N[C@@H](Cc1c[nH]c2ccccc12)C(=O)NC1CCCC1	3 nM	1.6 nM	2.6 nM
CC(C)C[C@H](CC(=O)NO)C(=O)N[C@@H](Cc1c[nH]c2ccccc12)C(=O)NCCc1ccc(O)cc1	1.1 nM	0.1 nM	0.52 nM
CC(C)C[C@H](CC(=O)NO)C(=O)N[C@@H](Cc1c[nH]c2ccccc12)C(=O)NCCc1ccccn1	1.4 nM	0.49 nM	0.73 nM
CNC(=O)[C@@H](Cc1csc2ccccc12)NC(=O)[C@@H](CC(=O)NO)CC(C)C	0.83 nM	0.45 nM	0.44 nM
CC(C)C[C@H](CC(=O)NO)C(=O)N[C@@H](Cc1c[nH]c2ccccc12)C(=O)NCCCn1ccnc1	1.1 nM	0.59 nM	1.3 nM
CC(C)C[C@H](CC(=O)NO)C(=O)N[C@@H](Cc1c[nH]c2ccccc12)C(=O)NCc1ccc2c(c1)OCO2	1.7 nM	3.7 nM	6.9 nM
CNC(=O)[C@H](Cc1c[nH]c2ccccc12)NC(=O)[C@@H](CC(=O)NOCC(=O)OC)CC(C)C	580 nM	460 nM	71000 nM
CC(C)C[C@H](CC(=O)NO)C(=O)N[C@H](Cc1ccncc1)C(=O)N[C@@H](C)c1ccccc1	2.5 nM	0.7 nM	1.9 nM
CC(C)C[C@H](CC(=O)NO)C(=O)N[C@H](Cc1ccc2ccccc2c1)C(=O)NCCc1ccc(O)cc1	1.7 nM	4.5 nM	8.1 nM
CNC(=O)[C@H](Cc1c[nH]c2ccccc12)NC(=O)[C@@H](CC(=O)NOC)CC(C)C	7.9 nM	7.7 nM	6.3 nM
CC(C)C[C@H](CC(=O)NO)C(=O)N[C@@H](Cc1c[nH]c2ccccc12)C(=O)N1CCCCC1	13 nM	27 nM	19 nM

Compound	Ki [1]	Ki [2]	Ki [3]
CC(C)C[C@H](CC(=O)NO)C(=O)N[C@@H](Cc1c[nH]c2ccccc12)C(=O)NCc1ccncc1	1.5 nM	0.29 nM	0.6 nM
CC(C)C[C@H](CC(=O)NO)C(=O)N[C@@H](Cc1c[nH]c2ccccc12)C(=O)NCCO	0.76 nM	0.35 nM	0.44 nM
CC(C)C[C@H](CC(=O)NO)C(=O)N[C@@H](Cc1c[nH]c2ccccc12)C(=O)NCCCN1CCOCC1	1.9 nM	0.39 nM	0.71 nM
CNC(=O)[C@H](Cc1c[nH]c2ccccc12)NC(=O)[C@@H](CC(=O)NOCc1ccccc1)CC(C)C	13 nM	16 nM	11 nM
CC(C)C[C@H](CC(=O)NO)C(=O)N(C)[C@@H](Cc1c[nH]c2ccccc12)C(=O)NCCCN1CCOCC1	69 nM	77 nM	55 nM
CC(C)C[C@H](CC(=O)NO)C(=O)N[C@H](Cc1ccc2ccccc2c1)C(=O)NCCCN1CCOCC1	3.5 nM	4.5 nM	3 nM
CCCC[C@H](CC(=O)NO)C(=O)N[C@@H](Cc1c[nH]c2ccccc12)C(=O)NC	0.54 nM	0.3 nM	0.57 nM
CC(C)C[C@H](CC(=O)NO)C(=O)N[C@H](Cc1ccncc1)C(=O)NCc1ccccc1	1.5 nM	0.96 nM	
CC(C)C[C@H](CC(=O)NO)C(=O)N[C@@H](Cc1c[nH]c2ccccc12)C(=O)N1CCCC1	26 nM	17 nM	20 nM
CC(C)C[C@H](CC(=O)NO)C(=O)N[C@H](Cc1cccnc1)C(=O)NCc1ccccc1	2.7 nM	0.63 nM	
CC(C)C[C@H](CC(=O)NO)C(=O)N[C@@H](Cc1c[nH]c2ccccc12)C(=O)N(C)C	22 nM	8.5 nM	19 nM
CNC(=O)[C@@H](Cc1cnc2ccccc2c1)NC(=O)[C@@H](CC(=O)NO)CC(C)C	0.7 nM	1 nM	1 nM
CC(C)C[C@H](CC(=O)NO)C(=O)N[C@H](Cc1ccc(-c2ccccc2)cc1)C(=O)NCCCN1CCOCC1	3.6 nM	6.8 nM	6.7 nM
CC(C)C[C@H](CC(=O)NO)C(=O)N[C@H](Cc1ccc(-c2ccccc2)cc1)C(=O)N[C@@H](C)c1ccccc1	6.3 nM	13 nM	25 nM
CC(C)C[C@H](CC(=O)NO)C(=O)N[C@@H](Cc1c[nH]c2ccccc12)C(=O)NCc1cccnc1	0.78 nM	0.11 nM	0.52 nM
CC(C)C[C@H](CC(=O)NO)C(=O)N[C@@H](Cc1c[nH]c2ccccc12)C(=O)N1CCOCC1	8.7 nM	6.9 nM	3.5 nM
CC(C)C[C@H](CC(=O)NO)C(=O)N[C@H](Cc1cccc2ccccc12)C(=O)NCCCN1CCOCC1	0.58 nM	0.3 nM	0.59 nM
CNC(=O)[C@@H](Cc1cccc2ccccc12)NC(=O)[C@@H](CC(=O)NO)CC(C)C	1.3 nM	0.64 nM	0.42 nM
CNC(=O)[C@@H](CC(C)C)NC(=O)[C@@H](CC(=O)NO)CC(C)C	2.5 nM	0.65 nM	1.1 nM
CNC(=O)[C@H](Cc1c[nH]c2ccccc12)NC(=O)[C@@H](CC(=O)NO)OC(C)C	18 nM	12 nM	42 nM

Compound	Ki [1]	Ki [2]	Ki [3]
CC(C)C[C@H](CC(=O)NO)C(=O)N[C@@H](Cc1c[nH]c2ccccc12)C(=O)NCc1ccccn1	0.68 nM	0.43 nM	0.54 nM
CCCCCO[C@H](CC(=O)NO)C(=O)N[C@@H](Cc1c[nH]c2ccccc12)C(=O)NC	26 nM	7.8 nM	43 nM
CC(C)C[C@H](CC(=O)NO)C(=O)N[C@@H](Cc1c[nH]c2ccccc12)C(=O)N[C@@H](C)c1ccccc1	3.7 nM	0.75 nM	0.64 nM
CNC(=O)[C@H](Cc1c[nH]c2ccccc12)N(C)C(=O)[C@@H](CC(=O)NO)CC(C)C	42 nM	21 nM	17 nM
CCCCCC[C@H](CC(=O)NO)C(=O)N[C@@H](Cc1c[nH]c2ccccc12)C(=O)NC	0.41 nM	0.24 nM	0.21 nM
CNC(=O)[C@@H](Cc1ccc2ccccc2c1)NC(=O)[C@@H](CC(=O)NO)CC(C)C	0.99 nM	1.3 nM	0.7 nM
CC(C)C[C@H](CC(=O)NO)C(=O)N[C@H](Cc1ccc(-c2ccccc2)cc1)C(=O)NCCc1ccc(O)cc1	6.5 nM	13 nM	8.1 nM
CCCCCNC(=O)[C@H](Cc1c[nH]c2ccccc12)NC(=O)[C@@H](CC(=O)NO)CC(C)C	7.1 nM	6.5 nM	4.6 nM
CC(C)C[C@H](CC(=O)NO)C(=O)N[C@H](Cc1ccc(-c2ccccc2)cc1)C(=O)NCc1ccccc1	3 nM	3.6 nM	
CC(C)C[C@H](CC(=O)NO)C(=O)N[C@@H](Cc1c[nH]c2ccccc12)C(=O)NCc1nccs1	0.9 nM	0.56 nM	
CC(C)C[C@H](CC(=O)NO)C(=O)N[C@H](Cc1ccc2ccccc2c1)C(=O)NCc1ccccc1	5.3 nM	7.7 nM	18 nM
CNC(=O)[C@H](Cc1cn(C)c2ccccc12)NC(=O)[C@@H](CC(=O)NO)CC(C)C	1.6 nM	0.66 nM	
CC(C)C[C@H](CC(=O)NO)C(=O)N[C@@H](Cc1c[nH]c2ccccc12)C(=O)NCc1nc2ccccc2[nH]1	3 nM	5.2 nM	7.3 nM
CC(C)C[C@H](CC(=O)NO)C(=O)N[C@@H](Cc1c[nH]c2ccccc12)C(=O)NCc1ccco1	1.7 nM	0.49 nM	0.92 nM
CNC(=O)[C@@H](Cc1ccncc1)NC(=O)[C@@H](CC(=O)NO)CC(C)C	2.8 nM	1.7 nM	0.96 nM
CC(C)C[C@H](CC(=O)NO)C(=O)N[C@@H](Cc1c[nH]c2ccccc12)C(=O)NCCNC(=O)OCc1ccccc1	1.1 nM	0.94 nM	
CC(C)CC(CC(=O)NO)C(=O)N[C@@H](Cc1c[nH]c2ccccc12)C(=O)NC1CCc2ccccc21 (single isomer, unassigned)	30 nM	24 nM	
CC(C)C[C@H](CC(=O)NO)C(=O)N[C@@H](Cc1c[nH]c2ccccc12)C(=O)NC1CCc2ccccc21 (single isomer, unassigned)	100 nM	130 nM	
CNC(=O)[C@@H](CC(C)C)NC(=O)C(CC(C)C)C(O)C(=O)NO (single isomer, unassigned)	2.3 nM	0.53 nM	0.47 nM
CNC(=O)[C@H](Cc1c[nH]c2ccccc12)NC(=O)C(CC(C)C)C(O)C(=O)NO (single isomer, unassigned)	1.7 nM	0.41 nM	0.89 nM
